# Data as given in patent US7790751B2, “Azinyl-3-sulfonylindazole derivatives as 5-hydroxytryptamine-6 ligands” (Wyeth LLC, priority 2005, dated 2010).
# Structures can show the parent of a compound that is named as a salt.
# Assays:
# [1] = biological target: human cloned 5-HT6 receptors (Homo sapiens, UniProt P50406); experiment: Evaluation of 5-HT6 binding affinity of test compounds ([3H]-LSD displacement)
# Sequence of human cloned 5-HT6 receptors (P50406 whole entry): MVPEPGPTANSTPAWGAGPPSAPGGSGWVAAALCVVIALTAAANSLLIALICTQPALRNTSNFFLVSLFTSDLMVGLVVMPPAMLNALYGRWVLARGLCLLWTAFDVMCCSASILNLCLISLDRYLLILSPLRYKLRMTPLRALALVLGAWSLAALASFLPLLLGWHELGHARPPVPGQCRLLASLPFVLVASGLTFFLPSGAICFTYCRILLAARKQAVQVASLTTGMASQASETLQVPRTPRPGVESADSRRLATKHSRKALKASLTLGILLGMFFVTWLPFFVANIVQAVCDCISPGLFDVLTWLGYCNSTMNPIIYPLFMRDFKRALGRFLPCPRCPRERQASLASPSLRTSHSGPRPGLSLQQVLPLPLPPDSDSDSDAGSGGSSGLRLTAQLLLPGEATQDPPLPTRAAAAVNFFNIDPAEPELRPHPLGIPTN
melting point,Ki [1] [nM],Compound
168 to 170 °C (dec.),–,"O=S(=O)(c1cccc2ccccc12)c1n[nH]c2ccc(OC3CCNC3)cc12 (centres unmarked) (as salt: hydrochloride) [Example 1, 3-(Naphthalene-1-sulfonyl)-5-(pyrrolidin-3-yloxy)-1H-indazole]"
174 to 176 °C (dec.),–,"O=S(=O)(c1cccc2ccccc12)c1n[nH]c2ccc(OC3CCNCC3)cc12 (as salt: hydrochloride) [Example 6, 3-(1-Naphthylsulfonyl)-5-(piperidin-4-yloxy)-1H-indazole Hydrochloride]"
252 to 254 °C,–,"CN1CCC(Oc2ccc3[nH]nc(S(=O)(=O)c4cccc5ccccc45)c3c2)CC1 (as salt: hydrochloride) [Example 21, 5-(1-Methylpiperidin-4-yloxy)-3-(1-naphthylsulfonyl)-1H-indazole Hydrochloride]"
175 to 177 °C,11 to 25,"O=S(=O)(c1cccc2ccccc12)c1n[nH]c2ccc(OCC3CCNCC3)cc12 [Example 27, 3-(1-naphthylsulfonyl)-5-(piperidin-4-ylmethoxy)-1H-indazole]"
168 to 170 °C,0.01 to 10,"O=S(=O)(c1cccc2ccccc12)c1n[nH]c2ccc(OCC3CCCNC3)cc12 (centres unmarked) [Example 28, 3-(1-Naphthylsulfonyl)-5-(piperidin-3-ylmethoxy)-1H-indazole]"
178 to 180 °C,0.01 to 10,"O=S(=O)(c1cccc2ccccc12)c1n[nH]c2ccc(OC3CCCNC3)cc12 (centres unmarked) [Example 29, 3-(1-Naphthylsulfonyl)-5-(piperidin-3-yloxy)-1H-indazole]"
–,0.01 to 10,"O=S(=O)(c1ccc(C(F)(F)F)cc1)c1n[nH]c2ccc(NC3CCNCC3)cc12 [Example 48, N-piperidin-4-yl-3-{[4-(trifluoromethyl)phenyl]sulfonyl}-1H-indazol-5-amine]"
–,0.01 to 10,"O=S(=O)(c1ccccc1)c1n[nH]c2ccc(NC3CCNCC3)cc12 [Example 49, 3-(phenylsulfonyl)-N-piperidin-4-yl-1H-indazol-5-amine]"
–,0.01 to 10,"COc1ccc(S(=O)(=O)c2n[nH]c3ccc(NC4CCNCC4)cc23)cc1 [Example 50, 3-[(4-methoxyphenyl)sulfonyl]-N-piperidin-4-yl-1H-indazol-5-amine]"
–,0.01 to 10,"Cc1cccc(S(=O)(=O)c2n[nH]c3ccc(NC4CCNCC4)cc23)c1 [Example 51, 3-[(3-methylphenyl)sulfonyl]-N-piperidin-4-yl-1H-indazol-5-amine]"
–,0.01 to 10,"O=C(Nc1ccc2[nH]nc(S(=O)(=O)c3cccc4ccccc34)c2c1)C1CCNCC1 [Example 52, N-[3-(1-Naphthylsulfonyl)-1H-indazol-5-yl]piperidine-4-carboxamide Hydrochloride]"
–,26 to 35,"O=C(Nc1ccc2c(S(=O)(=O)c3cccc4ccccc34)n[nH]c2c1)C1CCNCC1 [Example 53, N-[3-(1-Naphthylsulfonyl)-1H-indazol-6-yl]piperidine-4-carboxamide Dihydrochloride]"
–,26 to 35,"O=C(Nc1cccc2c(S(=O)(=O)c3cccc4ccccc34)n[nH]c12)C1CCNCC1 [Example 54, N-[3-(1-Naphthylsulfonyl)-1H-indazol-7-yl]piperidine-4-carboxamide Dihydrochloride]"
–,0.01 to 10,"O=C(Nc1cccc2c(S(=O)(=O)c3cccc4ccccc34)n[nH]c12)C1CCCNC1 (centres unmarked) [Example 55, N-[3-(1-Naphthylsulfonyl)-1H-indazol-7-yl]piperidine-3-carboxamide Dihydrochloride]"
